In patent US20220177818A1, “OPERATION PROCESS FOR A CELL CULTIVATION SYSTEM” (THE AUTOMATION PARTNERSHIP (CAMBRIDGE ) LTD., priority 2019, published 2022):

Tested on: fucosyltransferase
Assay: Feedback experiment: glycan profile of the monoclonal antibody from parallel CHO-bioreactor cultivations after feeding the inhibitor
Assay type: cell-based
Settings: Day 12 (end of cultivation), inhibitor in feed once per day from day 4; average of all 3 cultivations; relative to total measured glycans
From the text: In said experiment, parallel CHO-bioreactor cultivations producing a monoclonal antibody were started.
Values are in relative to the total amount of measured glycans. The different glycan profile abbreviations are explained in FIG. 7B. […] A decision was taken to reduce the fucosylated species, for example in order to increase ADCC potency (see e.g. Peipp et al 2008).
For this reason, the feeding strategy was adapted to contain an inhibitor of fucosyltransferase (2F-Peracetly-Fucose) in the feed (73). The feed was administered once per day throughout the experiment. Process samples were taken at the end of cultivation (day 12) and analyzed to check for the effect of the altered feeding strategy and compared to data from standard cultivations (74).

percentage distribution of analyzed glycans: FA2: 7,3% | percentage distribution of analyzed glycans: FA2G1: 2,6% | percentage distribution of analyzed glycans: FA2G2: 0,26%
Compound: CC(=O)OC1O[C@@H](C)[C@@H](OC(C)=O)[C@@H](OC(C)=O)[C@@H]1F (stereo partly drawn) [2F-Peracetly-Fucose, 2F-Peracetyl-Fucose]
